The test system of assay [1] is α-1,4-glucan lyase. Nature of the assay: Substrate specificity of α-1,4-glucan lyase, long term incubation (24 h), continuation of Table IV. The class given is biochemical, Gracilariopsis lemaneiformis. As to conditions: for release of 1,5-anhydrofructose and glucose checked by TLC on Silica gel 60: after 24 h of incubation; for Product released: 24 h; for activity of the lyase with the substrate (in words): long term incubation at 30° C. As to the method: The incubation time was 24 h.
(§1) The reaction mixture for the assay of α-1,4-glucan lyase was composed of 240 μl 62.5 mM Mops-NaOH containing 6 mg soluble starch (pH 6.2), the enzyme preparation and distilled water to a final volume of 300 μl. The reaction was carried out at 30° C. for 10-30 min. Liberated 1,5-anhydrofructose was determined by monitoring the absorbance at 546 nm after the addition of 3,5-dinitrosalicylic acid reagent. Soluble starch in the reaction mixture may be replaced by other substrates and the final substrate concentration may be varied as indicated in the text. The reaction time and enzyme concentration used in enzyme activity assay have been chosen to ensure the linearity of the reaction rate. One unit of α-1,4-glucan lyase activity is defined as the amount of enzyme which liberates 1μmol of 1,5-anhydrofructose min^-1 under the conditions described above.

Assay [2] relates to α-1,4-glucan lyase. Kind of assay: Inhibition studies of α-1,4-glucan lyase activity. Format: biochemical, Gracilariopsis lemaneiformis. As to conditions: for inhibition of enzymic activity: 0.1M; for inhibition of the enzyme: 50mM; for inhibition of the algal enzyme (in words): summary statement. On the procedure: as §1
Where [3] appears, read: substrate 10 mg ml^-1, 1.64 μg enzyme.
Setting [4] is: substrate 4 mg ml^-1, 1.64 μg enzyme.
The mark [5] stands for this setting: inhibitor 2 mM, amylopectin as substrate.
[6] abbreviates: inhibitor 2 mM, maltose as substrate.
Where [7] appears, read: substrate 10 mM, 1.64 μg enzyme.

Results on 28 compounds are retold here after US5695970A, “Glucan lyase producing 1,5-anhydrofructose” (priority 1992, dated 1997).

“Also recorded” adds a separate entry of the source.

As for `OC[C@H]1O[C@@H](O[C@H]2[C@H](O)[C@@H](O)C(O)O[C@@H]2CO)[C@H](O)[C@@H](O)[C@H]1O` (stereo partly shown) [Lactose, lactose], the “release of 1,5-anhydrofructose and glucose checked by TLC on Silica gel 60” value (“release … on Silica gel 60” for short) with α-1,4-glucan lyase [1] is “No 1,5-anhydrofructose and glucose were released”. Moreover, in the assay on α-1,4-glucan lyase [1] (setting [3]), the Product released was determined as 0 nmol. Moreover, the “inhibition of enzymic activity” value in the assay on α-1,4-glucan lyase [2] (amylopectin as substrate) and in the assay on α-1,4-glucan lyase [2] (maltose as substrate) was “no inhibition” throughout.

Take `OC[C@H]1O[C@H](OC[C@H]2OC(O)[C@H](O)[C@@H](O)[C@@H]2O)[C@H](O)[C@@H](O)[C@@H]1O` (stereo partly shown) [Isomaltose, isomaltose]: the “release … on Silica gel 60” value in the assay on α-1,4-glucan lyase [1] was “No 1,5-anhydrofructose and glucose were released”. The Product released in the assay on α-1,4-glucan lyase [1] (setting [4]) is reported as 0 nmol.

`[Ca+2].[Cl-].[Cl-]` [CaCl2]: the “inhibition of the enzyme” value in the assay with α-1,4-glucan lyase [2] (amylopectin as substrate) and in the assay with α-1,4-glucan lyase [2] (maltose as substrate) was “no inhibition” in each case.

With `O=[N+]([O-])c1ccc(O[C@H]2O[C@H](CO)[C@H](O)[C@H](O)[C@H]2O)cc1` [PNPGal, p-nitrophenyl-α-D-galactoside], the “activity of the lyase with the substrate (in words)” value (from here on “activity of the lyase”) with α-1,4-glucan lyase [1] is reported as “no activity”. Besides, the Product released in the assay with α-1,4-glucan lyase [1] (substrate 2 mM, 1.64 μg enzyme) is 0 nmol.

Turning to `OCC(O)CO` [glycerol], the “inhibition of enzymic activity” value with α-1,4-glucan lyase [2] (amylopectin as substrate) and in the assay with α-1,4-glucan lyase [2] (maltose as substrate) was “no inhibition” each time.

In the case of `[Cl][Mn][Cl]` [MnCl2], the “inhibition of the enzyme” value in the assay on α-1,4-glucan lyase [2] (amylopectin as substrate) and in the assay with α-1,4-glucan lyase [2] (maltose as substrate) was “no inhibition” in each case.

On to `OC[C@H]1NC[C@H](O)[C@@H](O)[C@@H]1O` [Deoxynojirimycin, deoxynojirimycin], for which the “inhibition of enzyme activity” value in the assay with α-1,4-glucan lyase [2] (inhibitor 0.165 mM, maltose as substrate) was “inhibit the activity completely”; in the assay on α-1,4-glucan lyase [2] (setting [5]) it was “completely inhibited”; with α-1,4-glucan lyase [2] (setting [6]), “completely inhibited”. The “inhibition of the algal enzyme (in words)” value (shortened to “inhibition … (in words)”) with α-1,4-glucan lyase [2] (no concentration) was “strongly inhibited”.

Regarding `OC[C@@H](O)[C@@H](O[C@H]1O[C@H](CO)[C@@H](O)[C@H](O)[C@H]1O)[C@H](O)[C@@H](O)CO` [Maltitol, maltitol], in the assay on α-1,4-glucan lyase [1] (setting [4]), the Product released came out at 122.4 nmol. For the same compound, the “inhibition of enzymic activity” value in the assay on α-1,4-glucan lyase [2] (amylopectin as substrate) is given as around 27%. In the assay with α-1,4-glucan lyase [2] (maltose as substrate), the “inhibition of enzymic activity” value was “around 47%”, the type of inhibition entry is “competitive” and the “inhibition … (in words)” value is on record as “inhibited”.

In the case of `Nc1ncnc2c1ncn2[C@@H]1O[C@H](COP(=O)(O)OP(=O)(O)O[C@H]2O[C@H](CO)[C@@H](O)[C@H](O)[C@H]2O)[C@@H](O)[C@H]1O` [ADP-Glucose], the Product released in the assay on α-1,4-glucan lyase [1] (substrate 5 mM, 1.64 μg enzyme) came to 0 nmol.

`OC[C@H]1O[C@H](O[C@H]2[C@H](O)[C@@H](CO)OC(O)[C@@H]2O)[C@H](O)[C@@H](O)[C@@H]1O` (stereo partly shown) [Nigerose, nigerose]: the “activity of the lyase” value in the assay on α-1,4-glucan lyase [1] is recorded as “able to degrade”. Moreover, the Product released in the assay with α-1,4-glucan lyase [1] (setting [4]) is 13452.8 nmol.

Consider `[Cl][Hg][Cl]` [HgCl2], for which the “inhibition … (in words)” value in the assay with α-1,4-glucan lyase [2] (no concentration) was “strongly inhibited”.

In the case of `OC[C@H]1O[C@@](CO)(O[C@H]2O[C@H](CO)[C@@H](O)[C@H](O)[C@H]2O)[C@@H](O)[C@@H]1O` [Sucrose, sucrose], the “release … on Silica gel 60” value in the assay with α-1,4-glucan lyase [1] was “No 1,5-anhydrofructose and glucose were released”. In addition, the Product released with α-1,4-glucan lyase [1] (setting [3]) is 0 nmol. For the same compound, the “inhibition of enzymic activity” value in the assay on α-1,4-glucan lyase [2] (amylopectin as substrate) and with α-1,4-glucan lyase [2] (maltose as substrate) was “no inhibition” throughout.

Take `O=[N+]([O-])c1ccc(O[C@H]2O[C@H](CO)[C@@H](O)[C@H](O)[C@@H]2O)cc1` [PNPMan, p-introphenyl-α-D-mannoside]: in the assay on α-1,4-glucan lyase [1], the “activity of the lyase” value is reported as “no activity”. Further, in the assay on α-1,4-glucan lyase [1] (substrate 2 mM, 1.64 μg enzyme), the Product released is recorded as 0 nmol.

Take `OC[C@H]1O[C@H](OC[C@H]2OC(O)[C@H](O)[C@@H](O)[C@@H]2O)[C@H](O)[C@@H](O)[C@H]1O` (stereo partly shown) [Melibiose, melibiose]: the “release … on Silica gel 60” value with α-1,4-glucan lyase [1] is “No 1,5-anhydrofructose and glucose were released”. Further, in the assay on α-1,4-glucan lyase [1] (setting [3]), the Product released stood at 0 nmol. For the same compound, the “inhibition of enzymic activity” value in the assay on α-1,4-glucan lyase [2] (amylopectin as substrate) and in the assay on α-1,4-glucan lyase [2] (maltose as substrate) was “no inhibition” each time.

For the compound `[Cl-].[K+]` [KCl], the “inhibition of the enzyme” value in the assay on α-1,4-glucan lyase [2] (amylopectin as substrate) and in the assay on α-1,4-glucan lyase [2] (maltose as substrate) was “no inhibition” in each case.

On to arabinose, for which the “inhibition of enzymic activity” value in the assay with α-1,4-glucan lyase [2] (amylopectin as substrate) and in the assay on α-1,4-glucan lyase [2] (maltose as substrate) was “no inhibition” in each case.

With `CO[C@H]1O[C@H](CO)[C@@H](O)[C@H](O)[C@H]1O` [Methyl α-D-glucoside, methyl α-D-glucoside], the “release … on Silica gel 60” value in the assay with α-1,4-glucan lyase [1] was “No 1,5-anhydrofructose and glucose were released”. For the same compound, in the assay with α-1,4-glucan lyase [1] (setting [7]), the Product released is listed as 0 nmol. Moreover, the “inhibitory effect on the enzyme activity” value in the assay with α-1,4-glucan lyase [2] (12 mM, maltose as substrate) is “no inhibitory effect”; in the assay with α-1,4-glucan lyase [2] (12 mM, soluble starch as substrate) it was “no inhibitory effect”.

Take `OC[C@H]1O[C@@H]2O[C@H]3[C@H](O)[C@@H](O)[C@@H](O[C@H]4[C@H](O)[C@@H](O)[C@@H](O[C@H]5[C@H](O)[C@@H](O)[C@@H](O[C@H]6[C@H](O)[C@@H](O)[C@@H](O[C@H]7[C@H](O)[C@@H](O)[C@@H](O[C@H]1[C@H](O)[C@H]2O)O[C@@H]7CO)O[C@@H]6CO)O[C@@H]5CO)O[C@@H]4CO)O[C@@H]3CO` [Cyclohexaamylose, cyclohexaamylose]: the “release … on Silica gel 60” value in the assay with α-1,4-glucan lyase [1] is “No 1,5-anhydrofructose and glucose were released”. In addition, the Product released with α-1,4-glucan lyase [1] (substrate 20 mM, 1.64 μg enzyme) came to 0 nmol. Also, the “inhibitory effect on the enzyme activity” value is reported as “no inhibitory effect” with α-1,4-glucan lyase [2] (4 mM, maltose as substrate) and “no inhibitory effect” in the assay with α-1,4-glucan lyase [2] (4 mM, soluble starch as substrate).

Take `OC[C@H]1O[C@H](OC[C@H]2O[C@H](O[C@H]3[C@H](O)[C@@H](O)C(O)O[C@@H]3CO)[C@H](O)[C@@H](O)[C@@H]2O)[C@H](O)[C@@H](O)[C@@H]1O` (stereo partly shown) [Panose, panose]: the Product released in the assay with α-1,4-glucan lyase [1] (setting [4]) was found to be 13465.6 nmol.

With `OC[C@@H](O)[C@@H](O)[C@H](O)[C@@H](O)CO` [sorbitol], the “inhibition of enzymic activity” value in the assay on α-1,4-glucan lyase [2] (amylopectin as substrate) and with α-1,4-glucan lyase [2] (maltose as substrate) was “no inhibition” each time.

For the compound `O=C(O)c1cc[c]([Hg][Cl])cc1` [PCMB, p-chloromercuribenzoic acid], the “inhibition of enzyme activity” value in the assay with α-1,4-glucan lyase [2] (setting [5]) and with α-1,4-glucan lyase [2] (setting [6]) was “around 90%” each time. In addition, the “inhibition … (in words)” value with α-1,4-glucan lyase [2] (no concentration) is recorded as “strongly inhibited”.

For `O=P(O)(O)O[C@H]1O[C@H](CO)[C@@H](O)[C@H](O)[C@H]1O` [Glucose 1-Phosphate], the Product released in the assay on α-1,4-glucan lyase [1] (setting [7]) is listed as 0 nmol.

As for “blocked p-nitrophenyl-α-D-maltoheptaoside [BPNPG7]”, the “activity of the lyase” value with α-1,4-glucan lyase [1] is “very low degrading rate; also recorded: little or no activity”. Further, the Product released in the assay with α-1,4-glucan lyase [1] (substrate 2 mM, 4.91 μg enzyme) is on record as 6.16 nmol.

Turning to `O[C@H]1[C@H](O)[C@@H](O)[C@H](O)[C@@H](O)[C@H]1O` [inositol], the “inhibition of enzymic activity” value in the assay with α-1,4-glucan lyase [2] (amylopectin as substrate) and in the assay on α-1,4-glucan lyase [2] (maltose as substrate) was “no inhibition” each time.

`[Cl-].[Cl-].[Mg+2]` [MgCl2]: the “inhibition of the enzyme” value in the assay on α-1,4-glucan lyase [2] (amylopectin as substrate) and in the assay on α-1,4-glucan lyase [2] (maltose as substrate) was “no inhibition” throughout.

As for xylose, the “inhibition of enzymic activity” value in the assay with α-1,4-glucan lyase [2] (amylopectin as substrate) and in the assay with α-1,4-glucan lyase [2] (maltose as substrate) was “no inhibition” throughout.

For the compound `OC[C@H]1O[C@H](O[C@H]2O[C@H](CO)[C@@H](O)[C@H](O)[C@H]2O)[C@H](O)[C@@H](O)[C@@H]1O` [Trehalose, trehalose], in the assay on α-1,4-glucan lyase [1], the “release … on Silica gel 60” value is “No 1,5-anhydrofructose and glucose were released”. Moreover, in the assay with α-1,4-glucan lyase [1] (setting [3]), the Product released is 0 nmol. Besides, the “inhibition of enzymic activity” value in the assay on α-1,4-glucan lyase [2] (amylopectin as substrate) and in the assay on α-1,4-glucan lyase [2] (maltose as substrate) was “no inhibition” in each case.

`OC[C@H]1O[C@@H](O[C@H]2[C@H](O)[C@@H](O)C(O)O[C@@H]2CO)[C@H](O)[C@@H](O)[C@@H]1O` (stereo partly shown) [Cellobiose, cellobiose]: the “release … on Silica gel 60” value in the assay with α-1,4-glucan lyase [1] is “No 1,5-anhydrofructose and glucose were released”. In the assay with α-1,4-glucan lyase [1] (setting [4]), the Product released worked out at 0 nmol.
